Data: patent publication US20190292189A1, “LIM KINASE INHIBITORS” (VIRONGY, LLC, priority 2016, published 2019)
Read-outs that look alike come from different tables or passages of the source.

Key:
ROCK-II = ROCK-II (Homo sapiens, UniProt O75116); assay: ROCK-II biochemical counter-screen
JNK3 = JNK3 (Homo sapiens, UniProt P53779); assay: JNK3 biochemical counter-screen; details: Table 6; read-out: Biochemical Inhibition IC50 (nM) JNK3
[1] = system: p-cofilin in CEM-SS T cells; assay: Cofilin phosphorylation cell assay in CEM-SS T cell lines; type: cell-based; details: Homo sapiens
Procedure: Cells were lysed in NuPAGE LDS Sample Buffer (Invitrogen) followed by sonication. Samples were heated at 90° C. for 10 minutes, separated by SDS-PAGE, and then transferred onto nitrocellulose membranes (Invitrogen). The membranes were washed in TBST for 3 minutes and then blocked for 30 minutes at room temperature with Starting Block blocking buffer (Pierce). […] The blots were washed three times for 15 minutes and scanned with Odyssey Infrared Imager (Li-cor Biosciences). The same blots were also stripped and reprobed with antibodies against GAPDH (Abcam) as a loading control.

[2] = system: cofilin phosphorylation in A7r5 cells; assay: In-cell Western assay of cofilin phosphorylation in A7r5 cells; type: cell-based
Procedure: A7r5 (15,000 cells/well) were plated in a clear-bottomed Packard View black 96-well plate in 100 μl of 10% FBS DMEM:F12 medium and were allowed to attach overnight. The next day, the cells were serum starved in 1% FBS DMEM medium for 2 hr and then treated with the compounds for 1 hr. […] Next day, they were washed twice with PBS-0.1% Tween 20 (PBST) washing solution for 5 min each at room temperature on the orbital shaker, followed by one wash with Licor Blocking Buffer containing 0.05% Tween-20 for 5 min on the shaker at RT. The cells were then incubated with secondary antibody goat anti-rabbit IR800 (1:500 dilution) for 1 hr at RT in the dark (covered the plate with foil) in Licor blocking buffer-containing Tween-20. Following this, cells were washed twice with PBST for 5 min each at room temperature and then once with Licor blocking buffer-containing 0.05% Tween-20. The wells were then incubated with ToPro 3 stain (nucleic acid staining), diluted 1:4000 in Licor blocking buffer or Licor blocking buffer with 0.05% Tween-20 for 30 min at room temperature in the dark. Finally the plates were washed twice with PBS and analyzed using the Odyssey LICOR Infrared Scanner.

Limk1 [3] = biological target: T1, Limk1 (Homo sapiens, UniProt P53667); assay: Limk1 biochemical assay (Reaction Biology, 10-dose IC50); parameters: His; purchased Reaction Biology Corporation; host or cells: insect cells
Target sequence in this assay (P53667 285-638): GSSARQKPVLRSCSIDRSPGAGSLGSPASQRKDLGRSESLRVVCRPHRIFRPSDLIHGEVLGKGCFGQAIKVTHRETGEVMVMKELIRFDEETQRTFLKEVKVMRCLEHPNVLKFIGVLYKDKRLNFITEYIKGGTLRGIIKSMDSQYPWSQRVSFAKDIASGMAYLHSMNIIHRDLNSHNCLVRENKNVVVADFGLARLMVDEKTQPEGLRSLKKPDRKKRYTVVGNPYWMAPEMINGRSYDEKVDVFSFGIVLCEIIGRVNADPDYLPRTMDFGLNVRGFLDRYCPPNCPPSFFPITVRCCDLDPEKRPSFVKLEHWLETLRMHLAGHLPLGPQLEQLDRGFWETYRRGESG

P450 2C9 = P450 2C9 (Homo sapiens, UniProt P11712); assay: P450 inhibition at 10 μM; type: in vitro ADME
P450 1A2 = biological target: T2, P450 1A2 (Homo sapiens, UniProt P05177)
T2 sequence (P05177 1-516): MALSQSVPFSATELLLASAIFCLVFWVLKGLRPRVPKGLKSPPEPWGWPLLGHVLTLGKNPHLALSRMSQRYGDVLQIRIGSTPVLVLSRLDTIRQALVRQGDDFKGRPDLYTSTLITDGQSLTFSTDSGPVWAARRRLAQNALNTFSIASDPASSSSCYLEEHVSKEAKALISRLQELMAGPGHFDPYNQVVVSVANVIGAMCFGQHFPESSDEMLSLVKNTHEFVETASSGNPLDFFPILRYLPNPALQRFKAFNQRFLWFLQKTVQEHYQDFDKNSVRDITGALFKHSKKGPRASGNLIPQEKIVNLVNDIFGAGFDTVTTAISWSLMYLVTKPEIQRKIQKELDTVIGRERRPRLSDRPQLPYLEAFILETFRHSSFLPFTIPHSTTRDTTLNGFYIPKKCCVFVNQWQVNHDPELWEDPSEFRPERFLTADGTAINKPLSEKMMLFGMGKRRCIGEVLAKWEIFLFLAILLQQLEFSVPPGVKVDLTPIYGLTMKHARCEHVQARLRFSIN

P450 2D6 = P450 2D6 (Homo sapiens, UniProt P10635); assay: P450 inhibition at 10 μM; type: in vitro ADME
P450 3A4 = P450 3A4 (Homo sapiens, UniProt P08684); assay: P450 inhibition at 10 μM; type: in vitro ADME
[4] = Microsomal stability, rat liver microsomes; type: in vitro ADME
[5] = Plasma pharmacokinetics studies on rats; details: for Cmax: read-out: Cmax (iv); for F (%) (po): po dosing 2 mg/kg
Procedure: In vivo pharmacokinetics (PK) studies were conducted for selected compounds during the whole optimization at various stages in order to identify structural elements that are favorable for in vivo applications, and/or to evaluate the feasibility of optimized Limk inhibitors for animal studies.

[6] = Microsomal stability, human liver microsomes; type: in vitro ADME
[7] = IOP lowering on rat eyes, topical dosing; type: in vivo, Brown Norway rats
ROCK-I = ROCK-I (Homo sapiens, UniProt Q13464); assay: ROCK-I biochemical counter-screen; details: Table 6; read-out: Biochemical Inhibition IC50 (nM) ROCK-I
PC-3 cells [8] = assay: In vitro migration (wound closure) assay in PC-3 cells; type: cell-based; details: Homo sapiens, PC-3, 24 h, read-out: inhibition of migration of PC-3 cells
Procedure: PC3 cells were cultured to confluence at >90% in 6 well culture dishes in 10% FBS RPMI1640 media the day before the assay. Lines were drawn with a marker on the bottom of the dishes. Using a sterile 1 mL pipet tip, the dishes were scratched three separate wounds through the cells moving perpendicular to the line drawn in the step above. The cells were rinsed with PBS twice very gently and added the RPMI1640 media, and the dishes were taken pictures using phase contrast under Leica DMI3000B microscope.

PC-3 cells [9] = assay: In vitro invasion assay in PC-3 cells; type: cell-based; details: Homo sapiens, 48 hours, compared to the control
Procedure: Transwell chambers coated with GFR Matrigel (BD Biosciences) were used for measurement of cell invasion. The matrigel was solidified at 37° C. in a humidified incubator the day before the assay. PC3 cells (1×10^3 cells per well) were grown in serum-free RPMI1640 media in the upper side of the insert. The lower well was filled with RPMI 1640 supplemented with 10% FBS with a Limk inhibitor (1 μM). PC3 cells were incubated at 37° C. in a humidified atmosphere containing 5% CO2 for 48 h. Then transwell membrane was rinsed three times with PBS, and the cells were fixed in 2.5% EM grade glutaraldehyde for 15 min at room temperature (RT) with no shaking. After removing glutaraldehyde by aspirating, the cells were permeabilized with 0.5% Triton X-100 in PBS for 3 min at RT, and they were rinsed three times with PBS. Then, the cells were stained by Gill's hematoxylin No. 1 for 15 min at RT, and they were washed by distilled water for three times. To remove any residual stain, the cells were washed by acid alcohol for 3 minutes and then rinsed by distilled water twice. The cells were exposed with 0.04% NH4OH until a blue color is observed on the membrane and then rinsed by distilled water twice. The membranes were dried overnight, and the stained cells were visualized under Leica DMI3000B microscope.

Limk1 [10] = biological target: T1, Limk1; details: reported by a Japanese group; read-out: Limk1 inhibition IC50; cited from earlier work
[11] = Table 5, means of ≥2 experiments, read-out: Biochemical IC50 (nM) ROCK-II
[12] = A7R5, A7r5 cells, read-out: Cofilin Phosphorylation In A7r5 Cells (IC50)
[13] = Table 5, means of ≥2 experiments, read-out: Biochemical IC50 (nM) Limk1
[14] = Table 4, means of ≥2 experiments, read-out: IC50 (nM) ROCK-II
[15] = Table 4, means of ≥2 experiments, read-out: IC50 (nM) Limk1

Chain of P450 2C9 (P11712 whole entry): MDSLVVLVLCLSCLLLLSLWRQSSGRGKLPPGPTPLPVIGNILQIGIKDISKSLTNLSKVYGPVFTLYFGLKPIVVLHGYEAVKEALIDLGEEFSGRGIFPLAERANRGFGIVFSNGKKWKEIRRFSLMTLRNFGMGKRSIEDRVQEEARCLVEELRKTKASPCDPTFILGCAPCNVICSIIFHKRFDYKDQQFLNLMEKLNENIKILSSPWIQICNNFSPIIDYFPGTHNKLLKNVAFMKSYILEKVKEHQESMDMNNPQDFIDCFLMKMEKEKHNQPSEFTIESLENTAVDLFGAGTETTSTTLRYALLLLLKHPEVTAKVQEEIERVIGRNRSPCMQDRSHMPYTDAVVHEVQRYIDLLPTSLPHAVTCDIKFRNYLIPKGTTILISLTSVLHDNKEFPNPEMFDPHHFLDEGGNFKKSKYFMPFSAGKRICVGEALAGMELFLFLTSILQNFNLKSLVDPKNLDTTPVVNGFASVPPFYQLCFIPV
Chain of ROCK-II (O75116 whole entry, species assumed): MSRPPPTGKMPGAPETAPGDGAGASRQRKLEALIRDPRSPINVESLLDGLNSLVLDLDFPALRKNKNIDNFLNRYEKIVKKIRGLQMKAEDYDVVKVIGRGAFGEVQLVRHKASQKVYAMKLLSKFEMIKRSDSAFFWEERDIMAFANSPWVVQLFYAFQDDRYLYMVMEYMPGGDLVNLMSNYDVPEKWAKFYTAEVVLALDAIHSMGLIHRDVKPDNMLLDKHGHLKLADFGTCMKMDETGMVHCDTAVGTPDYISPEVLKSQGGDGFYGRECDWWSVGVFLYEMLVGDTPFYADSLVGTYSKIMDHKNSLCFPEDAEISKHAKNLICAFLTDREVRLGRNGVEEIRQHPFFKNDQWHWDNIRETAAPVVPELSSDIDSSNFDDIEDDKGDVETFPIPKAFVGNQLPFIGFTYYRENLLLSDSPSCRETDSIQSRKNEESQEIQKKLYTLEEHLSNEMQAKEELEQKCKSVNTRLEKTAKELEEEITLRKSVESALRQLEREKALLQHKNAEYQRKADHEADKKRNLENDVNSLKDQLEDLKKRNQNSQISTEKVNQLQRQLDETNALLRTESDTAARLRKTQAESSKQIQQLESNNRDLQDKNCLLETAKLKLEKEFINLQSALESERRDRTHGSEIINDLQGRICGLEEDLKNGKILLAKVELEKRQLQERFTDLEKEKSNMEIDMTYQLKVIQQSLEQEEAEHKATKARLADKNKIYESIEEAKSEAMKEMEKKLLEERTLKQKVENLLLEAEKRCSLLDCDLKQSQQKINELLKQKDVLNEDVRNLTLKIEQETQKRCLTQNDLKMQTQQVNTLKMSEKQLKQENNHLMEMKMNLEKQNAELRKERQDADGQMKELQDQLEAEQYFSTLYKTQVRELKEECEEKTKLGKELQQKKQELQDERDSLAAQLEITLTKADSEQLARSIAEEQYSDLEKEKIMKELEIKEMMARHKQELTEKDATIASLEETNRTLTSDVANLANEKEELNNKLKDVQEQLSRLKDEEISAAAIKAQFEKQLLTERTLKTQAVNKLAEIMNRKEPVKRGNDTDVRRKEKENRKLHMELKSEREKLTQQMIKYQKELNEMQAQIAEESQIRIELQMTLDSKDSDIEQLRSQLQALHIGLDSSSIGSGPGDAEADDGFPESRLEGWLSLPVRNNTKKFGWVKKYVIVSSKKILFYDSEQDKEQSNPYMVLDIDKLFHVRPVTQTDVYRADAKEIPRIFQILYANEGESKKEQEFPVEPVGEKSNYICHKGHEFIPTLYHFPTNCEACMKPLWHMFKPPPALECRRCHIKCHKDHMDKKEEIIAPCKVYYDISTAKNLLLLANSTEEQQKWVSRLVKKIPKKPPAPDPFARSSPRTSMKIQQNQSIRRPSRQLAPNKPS
Chain of P450 3A4 (P08684 whole entry): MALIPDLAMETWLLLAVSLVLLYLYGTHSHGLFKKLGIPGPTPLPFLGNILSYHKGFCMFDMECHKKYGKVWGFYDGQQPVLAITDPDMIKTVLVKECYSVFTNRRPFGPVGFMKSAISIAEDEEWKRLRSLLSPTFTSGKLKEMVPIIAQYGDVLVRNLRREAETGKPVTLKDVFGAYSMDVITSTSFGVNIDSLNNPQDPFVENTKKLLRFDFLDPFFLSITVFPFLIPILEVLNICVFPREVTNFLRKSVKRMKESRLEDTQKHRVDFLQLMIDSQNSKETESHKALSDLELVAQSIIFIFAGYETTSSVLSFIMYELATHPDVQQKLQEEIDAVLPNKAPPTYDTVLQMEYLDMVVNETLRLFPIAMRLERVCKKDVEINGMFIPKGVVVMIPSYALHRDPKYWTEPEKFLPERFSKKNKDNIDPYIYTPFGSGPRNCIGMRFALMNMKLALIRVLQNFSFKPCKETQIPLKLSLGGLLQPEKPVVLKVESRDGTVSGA
Chain of P450 2D6 (P10635 whole entry): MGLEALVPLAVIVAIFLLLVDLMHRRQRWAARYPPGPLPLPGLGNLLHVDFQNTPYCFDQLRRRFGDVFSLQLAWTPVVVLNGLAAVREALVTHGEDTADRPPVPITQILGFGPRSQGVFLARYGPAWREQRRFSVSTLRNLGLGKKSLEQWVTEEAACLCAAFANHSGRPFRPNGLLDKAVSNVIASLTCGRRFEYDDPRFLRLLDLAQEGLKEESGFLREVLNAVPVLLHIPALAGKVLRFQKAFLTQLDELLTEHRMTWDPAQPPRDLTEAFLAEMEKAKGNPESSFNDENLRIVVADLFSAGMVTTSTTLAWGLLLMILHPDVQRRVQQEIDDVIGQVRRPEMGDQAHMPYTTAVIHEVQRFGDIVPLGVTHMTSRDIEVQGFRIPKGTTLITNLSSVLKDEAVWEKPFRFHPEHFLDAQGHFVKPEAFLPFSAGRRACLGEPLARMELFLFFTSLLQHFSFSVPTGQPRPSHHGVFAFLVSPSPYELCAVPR
Chain of ROCK-I (Q13464 whole entry, species assumed): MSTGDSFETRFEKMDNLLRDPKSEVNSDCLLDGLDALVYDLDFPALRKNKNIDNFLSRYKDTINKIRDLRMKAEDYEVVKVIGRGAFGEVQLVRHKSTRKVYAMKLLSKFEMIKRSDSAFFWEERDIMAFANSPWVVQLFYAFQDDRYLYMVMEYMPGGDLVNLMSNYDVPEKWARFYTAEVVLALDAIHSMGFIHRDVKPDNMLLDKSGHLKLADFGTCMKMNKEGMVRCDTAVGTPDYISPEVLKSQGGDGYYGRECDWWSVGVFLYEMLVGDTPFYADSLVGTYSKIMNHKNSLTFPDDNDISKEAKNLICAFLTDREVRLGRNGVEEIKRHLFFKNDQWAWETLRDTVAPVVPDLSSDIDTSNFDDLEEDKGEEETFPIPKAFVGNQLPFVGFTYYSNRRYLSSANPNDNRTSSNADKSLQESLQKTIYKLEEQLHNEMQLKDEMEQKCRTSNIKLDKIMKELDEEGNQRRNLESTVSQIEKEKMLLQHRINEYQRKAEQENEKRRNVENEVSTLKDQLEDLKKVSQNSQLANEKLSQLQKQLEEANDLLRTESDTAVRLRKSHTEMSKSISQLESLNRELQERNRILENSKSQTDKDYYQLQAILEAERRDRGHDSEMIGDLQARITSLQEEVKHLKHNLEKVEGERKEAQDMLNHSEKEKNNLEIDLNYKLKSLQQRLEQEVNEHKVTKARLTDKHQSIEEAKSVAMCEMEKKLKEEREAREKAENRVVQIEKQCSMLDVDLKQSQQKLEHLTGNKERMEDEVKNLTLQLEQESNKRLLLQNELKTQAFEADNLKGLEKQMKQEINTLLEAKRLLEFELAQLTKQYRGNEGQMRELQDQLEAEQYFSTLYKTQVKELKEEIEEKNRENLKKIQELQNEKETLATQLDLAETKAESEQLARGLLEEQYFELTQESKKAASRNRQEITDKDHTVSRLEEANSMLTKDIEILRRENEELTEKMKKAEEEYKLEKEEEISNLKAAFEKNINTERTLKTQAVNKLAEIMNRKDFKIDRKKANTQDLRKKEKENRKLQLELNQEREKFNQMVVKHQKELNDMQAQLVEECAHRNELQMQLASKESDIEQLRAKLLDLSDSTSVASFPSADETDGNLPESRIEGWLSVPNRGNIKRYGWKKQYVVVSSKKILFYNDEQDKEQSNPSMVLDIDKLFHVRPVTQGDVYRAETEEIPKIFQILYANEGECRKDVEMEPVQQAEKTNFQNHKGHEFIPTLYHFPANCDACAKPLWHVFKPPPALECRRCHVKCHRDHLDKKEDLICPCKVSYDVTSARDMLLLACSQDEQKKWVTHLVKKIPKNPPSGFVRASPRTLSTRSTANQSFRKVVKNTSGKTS
Chain of JNK3 (P53779 whole entry, species assumed): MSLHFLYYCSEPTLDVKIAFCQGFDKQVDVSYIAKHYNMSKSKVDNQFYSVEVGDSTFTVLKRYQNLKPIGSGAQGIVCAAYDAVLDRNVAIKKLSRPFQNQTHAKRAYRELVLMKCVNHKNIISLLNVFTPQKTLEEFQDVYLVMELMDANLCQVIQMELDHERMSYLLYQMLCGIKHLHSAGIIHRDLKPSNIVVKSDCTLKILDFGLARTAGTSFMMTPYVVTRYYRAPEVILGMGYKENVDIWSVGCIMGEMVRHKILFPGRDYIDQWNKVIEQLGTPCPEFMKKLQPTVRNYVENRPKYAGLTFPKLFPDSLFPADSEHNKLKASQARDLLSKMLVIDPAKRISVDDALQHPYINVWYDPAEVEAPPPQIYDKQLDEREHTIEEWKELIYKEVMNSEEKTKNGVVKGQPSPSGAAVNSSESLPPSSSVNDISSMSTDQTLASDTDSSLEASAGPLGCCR

Row | IC50 (ROCK-II; read-out: ROCK-II IC50) | AUC (iv) ([5]; rats, iv dosing 1 mg/kg) | Cl (iv) ([5]; rats, iv dosing 1 mg/kg) | T1/2 (iv) ([5]; rats, iv dosing 1 mg/kg) | Yd (iv) ([5]; rats, iv dosing 1 mg/kg) | Cmax ([5]; rats, iv dosing 1 mg/kg) | IC50 (ROCK-II; [14]) | SMILES | IC50 (ROCK-II; [11]) | inhibition at 1 µM [1] | IC50 [2, 12] | IC50 (Limk1 [3]; [13]) | P450 % inh. at 10 μM 2C9 (P450 2C9) | P450 % inh. at 10 μM 1A2 (P450 1A2; 10 μM) | P450 % inh. at 10 μM 2D6 (P450 2D6) | P450 % inh. at 10 μM 3A4 (P450 3A4) | Microsomal Stability t1/2 (min) Rat ([4]; rat liver microsomes) | IC50 (Limk1 [3]; [15]) | F (%) (po) ([5]; rats) | also measured
1 | > 20000 nM | 5.1 µM·h | 6.9 mL/min/kg | 3.4 h | 1.2 L/kg | 3500 nM |  | COCCN(C(=O)Nc1ccc(-c2ncnc3[nH]c(C)c(C)c23)cc1F)c1ccc(Cl)cc1 [Compound 18x, 1-(4-Chlorophenyl)-3-(4-(5,6-dimethyl-7H-pyrrolo[2,3-d]pyrimidin-4-yl)-2-fluorophenyl)-1-(2-methoxyethyl)urea] | > 20000 nM | > 50% | 250 nM | 8 nM | 50% | 23% | 15% | 52% | 13 min |  |  | IC50 (JNK3): > 10000 nM
2 |  | 0.7 µM·h | 55.9 mL/min/kg | 5.1 h |  | 1100 nM | 460 nM | Cc1c[nH]c2ncnc(-c3ccc(NC(=O)N(CCN)c4ccc(Cl)cc4)cc3)c12 [Compound 18p, 1-(2-Aminoethyl)-1-(4-chlorophenyl)-3-(4-(5-methyl-7H-pyrrolo[2,3-d]pyrimidin-4-yl)phenyl)urea] |  | > 50% |  |  |  |  |  |  |  |  |  | 
3 | > 10000 nM | 0.6 µM·h | 42.2 mL/min/kg | 6.1 h | 17.1 L/kg | 200 nM | > 10000 nM | Cc1c[nH]c2ncnc(-c3ccc(NC(=O)N(CCN(C)C)c4ccc(Cl)cc4)cc3)c12 [Compound 18r, 1-(4-Chlorophenyl)-1-(2-(dimethylamino)ethyl)-3-(4-(5-methyl-7H-pyrrolo[2,3-d]pyrimidin-4-yl)phenyl)urea] |  | > 50% |  |  |  |  |  |  |  | 20 nM | 0% | IC50 (Limk1 [3]; read-out: Limk1 IC50): ~20 nM
4 |  |  |  |  |  |  |  | COc1c(C=O)c(O)cc2c1C(=O)c1ccccc1C2=O [Damnacanthal] |  |  |  |  |  |  |  |  |  |  |  | IC50 (Limk1 [10]): ~800 nM

Row | SMILES | IC50 (ROCK-II; read-out: ROCK-II IC50) | AUC (iv) ([5]; rats, iv dosing 1 mg/kg) | Cl (iv) ([5]; rats, iv dosing 1 mg/kg) | T1/2 (iv) ([5]; rats, iv dosing 1 mg/kg) | Yd (iv) ([5]; rats, iv dosing 1 mg/kg) | Cmax ([5]; rats, iv dosing 1 mg/kg) | IC50 (ROCK-II; [14]) | IC50 (ROCK-II; [11]) | inhibition at 1 µM [1] | IC50 [2, 12] | IC50 (Limk1 [3]; [13]) | P450 % inh. at 10 μM 2C9 (P450 2C9) | P450 % inh. at 10 μM 1A2 (P450 1A2; 10 μM) | P450 % inh. at 10 μM 2D6 (P450 2D6) | P450 % inh. at 10 μM 3A4 (P450 3A4) | Microsomal Stability t1/2 (min) Rat ([4]; rat liver microsomes) | IC50 (Limk1 [3]; [15]) | F (%) (po) ([5]; rats) | also measured
5 | Cc1[nH]c2ncnc(-c3ccc(NC(=O)N(CCN(C)C)c4ccc(Cl)cc4)c(F)c3)c2c1C [Compound 18w, 1-(4-Chlorophenyl)-3-(4-(5,6-dimethyl-7H-pyrrolo[2,3-d]pyrimidin-4-yl)-2-fluorophenyl)-1-(2-(dimethylamino)ethyl)urea] | > 20000 nM | 3.0 µM·h | 14.2 mL/min/kg | 3.3 h | 1.5 L/kg | 2400 nM |  | > 20000 nM |  | 320 nM | 19 nM | −23% | 15% | 20% | −9% | 23 min |  |  | Microsomal Stability t1/2 (min) Human [6]: 19 min; maximal IOP decrease of the treated eye ([7]; 20 ul of […], from 1 to 4 hours, baseline 28 mmHg): ~6 mmHg; IOP drop on rat eyes ([7]; topical, dose of 50 μg): > 20%
6 | Cc1c[nH]c2ncnc(-c3ccc(NC(=O)N(CCO)c4ccccc4Cl)cc3)c12 [Compound 18f, 1-(2-Chlorophenyl)-1-(2-hydroxyethyl)-3-(4-(5-methyl-7H-pyrrolo[2,3-d]pyrimidin-4-yl)phenyl)urea] |  | 5.1 µM·h | 7.7 mL/min/kg |  |  | 4700 nM | 3340 nM |  |  |  |  | 39% |  | 1% | 37% |  | 58 nM | 21% | IC50 ([2]; A7R5, read-out: Cofilin Phosphorylation In A7r5 Cells (IC50, nM)): 420 nM; IC50 (ROCK-I): 4390 nM; P450 % inh. at 10 μM 1A2 (P450 1A2): −4/39/1/37%; inhibition at 0.1 µM (PC-3 cells [8]): 13%; inhibition at 1 µM (PC-3 cells [8]): 76.1%; inhibition at 10 µM (PC-3 cells [8]): 81%; inhibition at 1 µM (PC-3 cells [9]): 83%; Microsomal Stability t1/2 (min) Rat [4]: 38 min; T1/2 (iv) ([5]; rat, in vivo, iv, 1 mg/kg): 1.5 h; Yd (iv) ([5]; rat, in vivo, iv, 1 mg/kg): 0.7 L/kg
